{"source": "patent EP0091090A2", "about": "“Bipyridine substituted imidazolidene copper complex and its use in food-producing animals, and bipyridine, 2,2'-(2-imidazolidinylidene) di-copper complex and use in animals” (INTERNATIONAL MINERALS & CHEMICAL CORPORATION, priority 1982, dated 1983)", "key": {"[1]": {"test": "Methane production in growing lambs, respiration calorimetry (Example 4)", "type": "in vivo", "conditions": "75 ppm in diet, 3 days treated feed, versus negative control", "description": "Animal Test: The object of this test is to determine the effect of the test compound on methane production in growing animals (ruminants). A decrease in methane production is an indication of increased utilization of the animals' feed supply, and possibly an indication of the effectiveness of the compound as a growth promoter.\nTest Procedure: The test animals are housed in special respiration calorimetry facilities during the tests so that all metabolic gases can be collected and measured.\nTwelve wether lambs, weighing between 20 and 25 kg, were selected from a group of lambs purchased from the California Livestock Marketing Association. The animals were processed according to standard procedures after arrival, and they were ear tagged for identification purposes and weighed prior to being moved to the respiration calorimetry facility.\nExperimental Design - The animals were fed 500 grams of a 30% concentrate diet (Table 4) twice daily.\nThe Formula IV compound was tested in three animals at a level of 75 ppm. The test period was one week. […] Methane production was monitored during this time. […]\nSample Collection and Analysis - Since only the gas data on methane was of interest, urine and feces were collected daily and discarded. […] These samples were analyzed by gas chromatography to get a qualitative measure of […] production. […]"}, "rumen microflora": {"system": "rumen microflora", "test": "Batch culture assay for the degradation of starch (Example 3)", "type": "cell-based, steers", "description": "The subject Formula ^IV compound was also compared to monensin in another rumen fluid batch culture test as set forth below. The test was designed to screen compounds for inhibition of starch breakdown by the rumen microflora. […] It is considered more desirable to avoid degradation of starch in the rumen so that it is passed on into the abomasum where it can be digested more efficiently. […] Test Procedure: Animals - Mature fistulated steers were maintained on concentrate, roughage, or concentrate/ roughage (50/50) rations. Animals were fed twice daily at 8:00 A.M. and 4:00 P.M.\nCulture Assays - Approximately two liters of rumen fluid were collected from fistulated animals with the use of a hand pump. The rumen fluid, collected in a stoppered flask, was then immediately taken to the laboratory for processing. Samples were taken at 8:00 A.M. just prior to the first feeding or at 1:00 P.M. (ca. 4-5 hours after the first feeding). Rumen fluid was strained through six layers of cotton gauze cloth into a flask that was flushed with C02 gas. The filtrate was centrifuged for 5 minutes at 100 rpm in a Sorvall centrifuge to remove large particulate material. The supernatant was again passed through six layers of gauze into a flask under C02 gas and stoppered.\nBatch Culture Assay for the Degradation of Starch - Twenty-five ml of rumen fluid prepared as above was added to serum vials (Wheaton Glass, 100 ml capacity) containing 0.25-1.00% final concentration starch as an energy substrate in 25 ml batch culture assay buffer. The serum vials were sealed under C02 gas phase, and incubations were carried out for 20-24 hours at 39°C on a New Brunswick rotary shaker (250 rpm). Each experimental vial was done in triplicate. The corn starch used in degradation experiments was previously washed with distilled water several times, filtered through an 8 micron (47 mm) Millipore filter, and dried at 90°C for 24 hours.\nAt intervals of 0 and 24 hours, the entire contents in vials were centrifuged at 250 rpm for 5 minutes. The supernatants were carefully removed with a pipet and the remaining \"starch pellets\" resuspended in water and passed through borosilicate glass microfiber prefilters (Millipore AP 20-047-00). Filters were dried in an oven for 24 hours at 90°C, cooled and then weighed. The amount of starch remaining after 24 hours' incubation was compared with the amount present at 0 hours and the per cent of substrate degraded calculated."}}}
{"substance": "2,2'-(4,5-diphenyl-2H-imidazol-2-ylidene)bispyridine with CuCl2(1/1) [Formula IV Compound]", "values": [{"measurement": "methane production", "setting": "[1]", "result": "significant decrease"}, {"measurement": "starch degraded", "setting": "rumen microflora; 50 ppm, relative to unincubated control rumen fluid batch culture", "result": 28.7, "unit": "%"}, {"measurement": "per cent starch degraded", "setting": "rumen microflora; 75 ppm, relative to unincubated control", "result": 13.9, "unit": "%"}]}
